The values below come from ChEMBL document CHEMBL1144070, “Microbial transformation of sampangine” (1999).

Values after ≈ are worked out from the molar mass of the structure shown. Active and inactive are the calls of the source. The rule behind the calls is not given here.

The term MIC denotes the lowest concentration found to suppress growth. A low value points to inhibition by little substance.

The subject of assay [1] is Candida albicans. Put plainly: Antifungal activity against Candida albicans NIH B311 after 24 hrs by agar well diffusion method. It counts as functional. In general terms: A growth-free zone around the sample is the usual read-out of agar diffusion tests.
Assay [2] deals with Cryptococcus neoformans. The assay is described as follows: Antifungal activity against Cryptococcus neoformans ATCC 52657 after 48 hrs by agar well diffusion method. It counts as functional. The following applies: ATCC 52657, 48 h.
In assay [3] the test system is Cryptococcus neoformans. The assay is described as follows: Antifungal activity against Cryptococcus neoformans infected in Swiss ICR mouse assessed as lethality at 50 mg/kg, ip administered 24 hrs post infection for 12 days. It counts as functional, organism-based. Details: dose 50 mg/kg.

For the compound `OC[C@H]1O[C@@H](Oc2c3c4c(ccnc4c4ccccc24)C=CN3)[C@H](O)[C@@H](O)[C@@H]1O`, the outcome in assay [1] and in assay [3] was inactive. 0.78 µg/mL (≈ 1.97 µM) was the least that counted as inhibitory in assay [2] (MIC).
As for `O=C1c2ccccc2-c2nccc3ccnc1c23` [SAMPANGINE], the MIC was determined as 3.12 µg/mL (≈ 13.4 µM) in assay [1] and 0.2 µg/mL (≈ 0.861 µM) in assay [2].
Turning to `CO[C@H]1[C@H](O)[C@@H](O)[C@H](Oc2c3c4c(ccnc4c4ccccc24)C=CN3)O[C@@H]1CO`, the result in assay [1] was inactive. In addition, inhibition of growth in assay [2] (MIC) required 0.2 µg/mL (≈ 0.487 µM).
